According to patent publication US9187467B2, “2-phenyl benzothiazole linked imidazole compounds as potential anticancer agents and process for the preparation thereof” (Council of Scientific and Industrial Research, priority 2012, dated 2015):

Legend:
Format in all cases: cell-based, human
K-562 = experiment: SRB anticancer assay, leukemia; set-up: Log10GI50: unit not given here
SR = experiment: SRB anticancer assay, leukemia; conditions: Homo sapiens, 48 h
NCI-H460 = experiment: SRB anticancer assay, non-small lung; conditions: Homo sapiens, NCI-H460, 48 h
NCI-H522 = experiment: SRB anticancer assay, non-small lung; set-up: Log10GI50: unit not given here
KM12 = experiment: SRB anticancer assay, colon; conditions: Homo sapiens, KM12, 48 h
SF-295 = experiment: SRB anticancer assay, CNS; set-up: Log10GI50: unit not given here
SF-539 = experiment: SRB anticancer assay, CNS; set-up: Log10GI50: unit not given here
U251 = experiment: SRB anticancer assay, CNS; set-up: Log10GI50: unit not given here; conditions: U251; present compounds
OVCAR-3 = experiment: SRB anticancer assay, ovarian; set-up: Log10GI50: unit not given here
OVCAR-4 = experiment: SRB anticancer assay, ovarian; conditions: Homo sapiens, OVCAR-4, 48 h
NCI/ADR-RES = experiment: SRB anticancer assay, ovarian; set-up: Log10GI50: unit not given here; conditions: for Log10GI50: present compounds
786-0 = experiment: SRB anticancer assay, renal
TK-10 = experiment: SRB anticancer assay, renal; conditions: Homo sapiens, TK-10, 48 h
DU-145 = experiment: SRB anticancer assay, prostate; set-up: Log10GI50: unit not given here
LOX IMVI = experiment: SRB anticancer assay, melanoma; set-up: Log10GI50: unit not given here
SK-MEL-5 = experiment: SRB anticancer assay, melanoma; conditions: Homo sapiens, SK-MEL-5, 48 h
Breast cancer cell lines = experiment: SRB anticancer assay, panel result
In short: (§1)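 Tested across a sixty-line human cancer panel spanning nine tumour types. Dose–response curves used at least five concentrations in 10-fold dilution steps, with 48 h continuous drug exposure; cell growth/viability was estimated by sulforhodamine B protein staining.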

CNS cancer cell lines = experiment: SRB anticancer assay, panel result
In short: as §1

Colon cancer cell lines = experiment: SRB anticancer assay, panel result
In short: as §1

[1] = tested on: Leukemia cancer cell lines; experiment: SRB anticancer assay, panel result
In short: as §1

[2] = tested on: Melanoma cancer cell lines; experiment: SRB anticancer assay, panel result
In short: as §1

[3] = tested on: Non-small cell lung cancer cell lines; experiment: SRB anticancer assay, panel result
In short: as §1

[4] = tested on: Ovarian cancer cell lines; experiment: SRB anticancer assay, panel result
In short: as §1

[5] = tested on: Prostate cancer cell lines; experiment: SRB anticancer assay, panel result
In short: as §1

Renal cancer cell lines = experiment: SRB anticancer assay, panel result
In short: as §1

COc1cc(-c2cncn2-c2ccc(-c3nc4ccc(F)cc4s3)cc2)ccc1F [Compound 4c, 6-Fluoro-2-(4-(5-(4-fluoro-3-methoxyphenyl)-1H-imidazol-1-yl)phenyl)benzo[d]thiazole]
GI50 (K-562; Homo sapiens, K562, K-562, 48 h): 3.93 µM | Log10GI50 (K-562; K-562, present compounds): −5.41 | GI50 (SR): 4.99 µM | GI50 (NCI-H460): 5.7 µM | GI50 (NCI-H522; Homo sapiens, NCI-H522, 48 h): 9.9 µM | Log10GI50 (NCI-H522; NCI-H522, present compounds): −5.00 | GI50 (KM12): 6.4 µM | GI50 (SF-295; Homo sapiens, SF-295, 48 h): 75.9 µM | Log10GI50 (SF-295; SF-295, present compounds): −4.90 | GI50 (SF-539; Homo sapiens, SF-539, 48 h): > 100 µM | Log10GI50 (SF-539; SF-539, present compounds): −4.12 | Log10GI50 (U251): −4.90 | GI50 (OVCAR-3; Homo sapiens, OVCAR-3, 48 h): 5.71 µM | Log10GI50 (OVCAR-3; OVCAR-3, present compounds): −5.24 | GI50 (OVCAR-4): 11.4 µM | GI50 (NCI/ADR-RES; Homo sapiens, NCI/ADR-RES, 48 h): 30.6 µM | Log10GI50 (NCI/ADR-RES; NCI/ADR-RES (row head NCI/ADR-)): −4.51 | Log10GI50 (NCI/ADR-RES; listed as head printed RES (second line of NCI/ADR-RES)): >−4.0 | Log10GI50 (786-0; 786-0, present compounds): −4.44 log10 M | GI50 (786-0; Homo sapiens, 786-0, 48 h): 36.1 µM | GI50 (TK-10): 38.8 µM | Log10GI50 (DU-145; DU-145, present compounds): −4.85 | GI50 (DU-145; Homo sapiens, DU-145, 48 h): 14.3 µM | GI50 (LOX IMVI; Homo sapiens, 48 h): 35.9 µM | Log10GI50 (LOX IMVI; present compounds): −4.44 | GI50 (SK-MEL-5): 12.1 µM | mean graph midpoint value (MG_MID) of Log10 GI50 (Breast cancer cell lines; Breast panel): −4.82 mol/L | mean graph midpoint value (MG_MID) of log10 TGI (Breast cancer cell lines; Breast panel, total inhibition of net cell growth): −4.02 | CC50 (Breast cancer cell lines; Homo sapiens, Breast panel, 50% net cell death, read-out: mean graph midpoint value (MG_MID) of Log10 LC50 (converted)): > 100 µM | GI50 (Breast cancer cell lines; Homo sapiens, six breast cancer cell lines, exposure at least 48 h, read-out: GI50, range over the panel): 7.98 to 32.2 µM | mean graph midpoint value (MG_MID) of Log10 GI50 (CNS cancer cell lines; CNS panel): −4.52 mol/L | mean graph midpoint value (MG_MID) of log10 TGI (CNS cancer cell lines; CNS panel, total inhibition of net cell growth): −4.05 | CC50 (CNS cancer cell lines; Homo sapiens, CNS panel, 50% net cell death, read-out: mean graph midpoint value (MG_MID) of Log10 LC50 (converted)): > 100 µM | GI50 (CNS cancer cell lines; Homo sapiens, six CNS cancer cell lines, exposure at least 48 h, read-out: GI50, range over the panel): 12.6 to 75.9 µM | mean graph midpoint value (MG_MID) of Log10 GI50 (Colon cancer cell lines; Colon panel): −4.71 log10(mol/L) | mean graph midpoint value (MG_MID) of log10 TGI (Colon cancer cell lines; Colon panel, total inhibition of net cell growth): −4.06 | LC50 (Colon cancer cell lines; Homo sapiens, Colon panel, 50% net cell death, read-out: mean graph midpoint value (MG_MID) of Log10 LC50 (converted)): > 100 µM | GI50 (Colon cancer cell lines; Homo sapiens, seven colon cancer cell lines, exposure at least 48 h, read-out: GI50, range over the panel): 4.36 to 82.3 µM | LC50 ([1]; Homo sapiens, Leukemia panel, 50% net cell death, read-out: mean graph midpoint value (MG_MID) of Log10 LC50 (converted)): > 100 µM | GI50 ([1]; Homo sapiens, six leukemia cancer cell lines, exposure at least 48 h, read-out: GI50, range over the panel): 2.5 to 6.92 µM | mean graph midpoint value (MG_MID) of Log10 GI50 ([1]; Leukemia panel): −5.38 log10(mol/L) | mean graph midpoint value (MG_MID) of log10 TGI ([1]; Leukemia panel, total inhibition of net cell growth): −4.19 | LC50 ([2]; Homo sapiens, Melanoma panel, 50% net cell death, read-out: mean graph midpoint value (MG_MID) of Log10 LC50 (converted)): > 100 µM | GI50 ([2]; Homo sapiens, nine melanoma cancer cell lines, exposure at least 48 h, read-out: GI50, range over the panel): 4.11 to 39.7 µM | mean graph midpoint value (MG_MID) of Log10 GI50 ([2]; Melanoma panel): −4.82 log10(mol/L) | mean graph midpoint value (MG_MID) of log10 TGI ([2]; Melanoma panel, total inhibition of net cell growth): >−4.0 | LC50 ([3]; Homo sapiens, Non-small cell lung panel, 50% net cell death, read-out: mean graph midpoint value (MG_MID) of Log10 LC50 (converted)): 93.3 µM | GI50 ([3]; Homo sapiens, nine Non-small cell lung cancer cell lines, exposure at least 48 h, read-out: GI50, range over the panel): 5.47 to 49.3 µM | mean graph midpoint value (MG_MID) of Log10 GI50 ([3]; Non-small cell lung panel): −4.83 log10(M) | LC50 ([4]; Homo sapiens, Ovarian panel, 50% net cell death, read-out: mean graph midpoint value (MG_MID) of Log10 LC50 (converted)): > 100 µM | GI50 ([4]; Homo sapiens, seven ovarian cancer cell lines, exposure at least 48 h, read-out: GI50, range over the panel): 5.71 to 30.6 µM | mean graph midpoint value (MG_MID) of Log10 GI50 ([4]; Ovarian panel): −4.62 mol/L | mean graph midpoint value (MG_MID) of log10 TGI ([4]; Ovarian panel, total inhibition of net cell growth): −4.11 | LC50 ([5]; Homo sapiens, Prostate panel, 50% net cell death, read-out: mean graph midpoint value (MG_MID) of Log10 LC50 (converted)): > 100 µM | GI50 ([5]; Homo sapiens, two prostate cancer cell lines (PC-3, DU-145), exposure at least 48 h, read-out: GI50, range over the panel): 3.47 to 14.3 µM | mean graph midpoint value (MG_MID) of Log10 GI50 ([5]; Prostate panel): −5.16 mol/L | mean graph midpoint value (MG_MID) of log10 TGI ([5]; Prostate panel, total inhibition of net cell growth): −4.06 | CC50 (Renal cancer cell lines; Homo sapiens, Renal panel, 50% net cell death, read-out: mean graph midpoint value (MG_MID) of Log10 LC50 (converted)): 95.5 µM | GI50 (Renal cancer cell lines; Homo sapiens, eight renal cancer cell lines, exposure at least 48 h, read-out: GI50, range over the panel): 0.0432 to 38.8 µM | mean graph midpoint value (MG_MID) of Log10 GI50 (Renal cancer cell lines; Renal panel): −4.98 log10(mol/L) | mean graph midpoint value (MG_MID) of log10 TGI (Renal cancer cell lines; Renal panel, total inhibition of net cell growth): −4.11
